Measured values reported in publication PMC13252604, “First Generation Proteolysis Targeting Chimeras (PROTACs) for the Treatment of Progeria” (Advanced Science, 2026).

System: HGADFN167 Lmna^G608G/G608G fibroblasts
Test: Senescence-associated β-galactosidase activity in human progeroid cells
Format: cell-based
Settings: HGADFN167, 5 µM, 20 days
Source text: FIGURE 6 (A) Representative cropped immunoblots and progerin quantification in human Lmna^G608G/G608G fibroblasts. MW, molecular weight (in kDa) markers. […] (B) PROTAC 2 increases cell proliferation (upper panels) and decreases the number of misshapen nuclei (lower panels). White arrows highlight selected misshapen nuclei. (C) PROTAC 2 decreases senescence‐associated β‐galactosidase (SA‐βgal) activity, interleukin (IL) 6, p16 and p21 senescent markers. Bar graphs show mean±sem of 2 (SA‐βgal and p21) or 3 (IL‐6 and p16) independent experiments performed in triplicate. (D) PROTAC 2 decreases phosphorylated histone 2AX (pH2AX) and increases trimethylated histone 3 (H3K9Me3) levels. (E) PROTAC 2 increases the oxygen consumption rate (OCR), ATP production and the number of healthy mitochondria in human progeroid cells. […] Data were analysed using one‐way ANOVA followed by Dunnett's post–hoc test vs vehicle (panel A) or vs G608G cells (panels B‐E). ^*, p < 0.05; ^**, p < 0.01; ^***, p < 0.001; ^****, p < 0.0001. […]
compound exposure. […] Samples were analysed by electrophoresis in polyacrylamide gels (All Kd SDS-PAGE, BioRad) and the proteins transferred to nitrocellulose membranes (GE Healthcare, Amersham). […]
GAPDH (Cell Signaling, 2118S, 1:5000) and anti-actin (Santa Cruz Biotechnology, sc-376248, 1:500) as antibodies for loading control. […] The bands were quantified by densitometry using the […]

Structure (SMILES): CC1(C)Oc2cc3oc(=O)ccc3cc2C[C@@H]1OC(=O)CCCCCNc1cccc2c1C(=O)N(C1CCC(=O)NC1=O)C2=O (stereo partly shown) [compound 2]
- SA‐βgal senescent marker: significantly reduced
